In patent publication US11602550B2, “Compositions comprising bacterial strains and use thereof in controlling pathogenic microorganisms” (priority 2018, dated 2023):

Tests used:
Assay in all cases: Agar well diffusion antifungal assay against molds
Assay type in all cases: cell-based
Conditions in all cases: PDA plates, 25° C. 72 hours; NA: No antagonism was observed
[1] = test system: Cladosporium sphaerospermum Penzig (ATCC MYA-4645)
Protocol: (§1) The agar well diffusion assay was performed to evaluate the antagonistic activity of B. amyloliquefaciens 298 against the growth of pathogenic bacteria including Escherichia coli ATCC 22922, Pseudomonas aeruginosa, B. cereus ATCC 27348, Staphylococcus aureus ATCC 11335, Salmonella Typhimurium ATCC 14028 and Listeria innocua ATCC 3586. […] Brain Heart Infusion (BHI) Agar was used for the antagonism against pathogenic microorganisms while the Potato Dextrose Agar (PDA) was used for evaluation against molds. Reference pathogens were prepared using BHI broth at 37° C. for 18 hours while B. amyloliquefaciens 298 was grown using LB broth at 37° C. for 18 hours. Molds were prepared using PDA at 25° C. with 85% HR for 7 days. Mold spores, pathogens and B. amyloliquefaciens 298 were harvested and resuspended in PBS. Pathogens and B. amyloliquefaciens 298 were adjusted to an optical density of 0.2 and 100 uL of pathogen suspended in PBS was spread on BHI agar plates. The same amount of mold spore suspension was inoculated on PDA. Wells were made in all the plates and 20 μL of B. amyloliquefaciens 298 suspensions were inoculated in the wells while the BHI plates were incubated at 37° C. for 24 hours and PDA plates at 25° C. for 72 hours.
(§2) The agar well diffusion assay was performed to evaluate the antagonistic activity of B. subtilis 3 against the growth of pathogenic bacteria including Escherichia coli ATCC 25922, Pseudomonas aeruginosa ATCC 27853, B. cereus ATCC 27348, Staphylococcus aureus ATCC 6538, Salmonella Typhymurium ATCC 14028 and Listeria inocua ATCC 33090. […] Brain Heart Infusion (BHI) Agar was used for the antagonism against pathogenic microorganisms while the Potato Dextrose Agar (PDA) was used for evaluation against molds. Reference pathogens were prepared using BHI broth 37° C. for 18 hours, while B. subtilis 3 was grown using LB broth at 37° C. for 18 hours. Molds were prepared using PDA at 25° C. with 85% HR for 7 days. Mold spores, pathogens and B. subtilis 3 were harvested and resuspended in PBS. […] The same amount of mold spore suspension was inoculated on PDA. […]

[2] = test system: Alternaria alternata (Fries) Keissler (ATCC MYA-4642)
Protocol: as §1, §2

[3] = test system: Penicillium chrysogenum Thom (ATCC MYA-4644)
Protocol: as §1, §2

`OO` [Hydrogen peroxide 10%, Hydrogen peroxide] was tested. Which “Inhibition zone, Cladosporium sphaerospermum Penzig (ATCC MYA-4645)” value [1] did it give?
Its value is 12 mm.

What about the “Inhibition zone, Alternaria alternata (Fries) Keissler (ATCC MYA-4642)” value [2] of the same compound?
The value was 8 mm.

What about the “Inhibition zone, Penicillium chrysogenum Thom (ATCC MYA-4644)” value [3] of the same compound?
Its value is 10 mm.
